As a reminder, the EC50 is the concentration at which the effect is half-maximal.

This is an account of results in patent publication EP4810493A1, “HETEROCYCLIC CARBONYL DERIVATIVE MODULATOR, PREPARATION METHOD THEREFOR, AND USE THEREOF” (Shanghai Hansoh Biomedical Co., Ltd., priority 2023, dated 2025).

The structures appear in SMILES notation. Where two headings read alike, the source gives them in different places.

For the assay, the target named is T1, M4 receptor (Homo sapiens, UniProt P08173).
T1 construct: expressed in transfected cells
T1 sequence (P08173 1-479): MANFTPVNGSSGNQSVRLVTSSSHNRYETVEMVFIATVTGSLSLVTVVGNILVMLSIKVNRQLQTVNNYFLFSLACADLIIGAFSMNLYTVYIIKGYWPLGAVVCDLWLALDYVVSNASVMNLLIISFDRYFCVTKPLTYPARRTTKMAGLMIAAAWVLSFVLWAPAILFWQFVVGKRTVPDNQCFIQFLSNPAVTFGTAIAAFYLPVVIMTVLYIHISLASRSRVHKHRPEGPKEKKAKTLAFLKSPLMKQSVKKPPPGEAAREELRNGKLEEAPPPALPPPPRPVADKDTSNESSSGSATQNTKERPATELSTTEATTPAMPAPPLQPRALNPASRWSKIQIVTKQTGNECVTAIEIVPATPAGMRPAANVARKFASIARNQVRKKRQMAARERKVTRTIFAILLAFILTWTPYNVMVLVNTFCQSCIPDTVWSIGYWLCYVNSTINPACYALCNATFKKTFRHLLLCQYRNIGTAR
Nature of the assay: Calcium flux (FLIPR) potentiation assay in cells stably expressing M4 receptor. The assay is classed as cell-based. An excerpt: Test example 1. Determination of the effect of the compounds of the present invention on calcium current in cells stably expressing M1-M5 receptors
To detect the potentiating effect of compounds on calcium flux activity in CHO-K1/human M1/3/5 and CHO-K1/Gα15 M2/4 cells.
384-well assay plate, 384-well plate, FLIPR Tip, FLIPR Penta plate reader, Dispendix non-contact nanoliter dispensing system (liquid handling workstation), liquid handler.
Ham's F-12 Nutrient Mix, foetal bovine serum, P/S (Gibco: 15140122), HBSS (Gibco: 14025076), HEPES (Gibco: 15630080), FLIPR calcium 6 assay kit (Molecular Devices: R8190), Probenecid (PBA) (Invitrogen: P36400), Acetylcholine chloride (Sigma: A6625-25G) Complete culture medium: DMEM + 10% FBS + 1X P/S; Cell seeding medium: DMEM + 10% FBS + 1X PS; Assay buffer 1: 1X HBSS + 20 mM HEPES +2.5 mM Probenecid; Assay buffer 2: 1X HBSS + 20 mM HEPES; Cell line: CHO-K1/M1; CHO-K1/M2/Gα15; CHO-K1/M3; CHO-K1/M4/Gα15; CHO-K1/M5.
FLIPR calcium 6 assay kit: Component A was dissolved in Assay buffer 1, and the mixture was shaken for 1-2 min, sub-packaged and stored at -20°C.
• 1) CHO-K1/M1; CHO-K1/M2/Gα15; CHO-K1/M3; CHO-K1/M4/Gα15; and CHO-K1/M5 cell lines were cultured separately in complete culture medium at 37°C, 5% CO2 to 70%-90% confluency. • 2) The cells were digested and resuspended in cell seeding medium, 5,000 cells/well/20 µL were seeded into a 384-well cell culture plate, and the cells were cultured at 37°C, 5% CO2 for 24 hours. • 3) The cell culture plate was taken out of the CO2 incubator and equilibrated at room temperature for 10 minutes. • 4) Component A solution was removed and allowed to equilibrate to room temperature. 20 µL of Component A solution was added to each well of the cell culture plate, and incubated at room temperature in the dark for 1 hour. • 5) Acetylcholine chloride (ACh), a muscarinic receptor agonist, was prepared in Assay buffer 2 at EC20/EC100 concentrations; subsequently, 30 µL of the prepared muscarinic receptor agonist was added to a 384-well agonist plate (PE: 6008590) using a Multidrop Combi; the working solutions of the positive control compound and the test compound were serially diluted at a 3.16-fold gradient and dispensed (450 nL) into a 384-well compound plate (PE: 6008590) using the Dispendix liquid handling workstation; 30 µL of Assay buffer 2 was added to the 384-well compound plate (PE: 6008590) using the Multidrop Combi; the positive control compound and the test compound were diluted to 6X, mixed by shaking, and placed at room temperature until use. • 6) 10 µL of the diluted 6X compound was added to the assay wells of the corresponding 384-well cell plate using the FLIPR Penta, followed by a 2-minute incubation. • 7) 10 µL of the prepared muscarinic receptor agonist was added to the assay wells of the corresponding 384-well cell plate using the FLIPR Penta, with simultaneous data acquisition.
FLIPR Penta was used to read and collect the fluorescence signal value (RFU). The maximum RFU value was used to calculate the percent activation data based on the readings of the Low control (DMSO control group) and High control (ACh EC100) experimental groups {% activation rate = (RFUsample - RFUlow control) / (RFUhigh control - RFUlow control)×100}. The test compound was diluted 3.16X in the reaction system to generate 11 concentration points ranging from 30 µM to […].
On the technique in general: Calcium flux is commonly read through the fluorescence of an indicator in the cells.

The mark [1] stands for this setting: CHO-K1/M4/Gα15 cells, potentiation of acetylcholine (EC20) calcium flux, read-out: M4 FLIPR EC50.

`Cc1c2c(c3ncnn3c1C)CN(C(=O)OC1CN(c3cc(C(F)F)ncc3Cl)C1)C2` [Example 184]: the half-maximal effective concentration (EC50) under setting [1] worked out at 44.1 nM.
For `Cc1ccc(N2CC(CC(=O)N3Cc4c(C)c(C)n5ncnc5c4C3)C2)cn1` [Example 318], the EC50 under setting [1] came to 11.2 nM.
On the same count and under the same terms, the figure for `Cc1nc2c3c(c(C)c(C)n2n1)CN(C(=O)C1CCN(c2ccncn2)C1)C3` (stereo not drawn) [Example 140] is 51.7 nM.
Regarding `Cc1c2c(c3ncnn3c1C)CN(C(=O)CC1CN(c3ncc(F)cc3F)C1)C2` [Example 301], the half-maximal effective concentration (EC50) was determined as 12.4 nM.
As for `CCNc1nccc(N2CC(CC(=O)N3Cc4c(C)c(C)n5ncnc5c4C3)C2)n1` [Example 53], under setting [1], the concentration for a half-maximal effect (EC50) stood at 8 nM.
On to `Cc1nc2c3c(c(C)c(C)n2n1)CN(C(=O)[C@@H]1CCN(c2ccncn2)C1)C3` [Example 232], for which, under setting [1], the concentration for a half-maximal effect (EC50) was 36.4 nM.
As for `COc1c(C)c2c(n3ncnc13)CN(C(=O)CC1CN(c3ccnc(C(F)(F)F)c3)C1)C2` [Example 292, 1-(4-Methoxy-5-methyl-7,8-dihydro-6H-[1,2,4]triazolo[5,1-f]pyrrolo[4,3-b]pyridin-7-yl)-2-{1-[2-(trifluoromethyl)pyridin-4-yl]azetidin-3-yl}ethan-1-one], the EC50 under setting [1] came to 53.5 nM.
On to `COc1nccc(N2CC(OC(=O)N3Cc4c(C)c(C)n5ncnc5c4C3)C2)n1` [Example 239], for which the EC50 under setting [1] came to 42.6 nM.
The same measure, in the same setting: the value for `Cc1c2c(c3ncnn3c1C)CN(C(=O)C1CC(Nc3ccnc(C(F)(F)F)c3)C1)C2` (stereo not drawn) [Example 284-P2, (5,6-Dimethyl-7,9-dihydro-8H-pyrrolo[3,4-c][1,2,4]triazolo[1,5-a]pyridin-8-yl)(3-((2-(trifluoromethyl)pyridin-4-yl)amino)cyclobutyl)methanone] was 59.7 nM; that for `Cc1c2c(c3ccnn3c1C)CN(C(=O)CC1CN(c3ccnc(C(F)F)c3)C1)C2` [Example 208] was 42.6 nM.
With `CCn1ccc2cc(N3CC(CC(=O)N4Cc5c(C)c(C)n6ncnc6c5C4)C3)ccc21` [Example 310], the EC50 under setting [1] came to 91.2 nM.
On to `Cc1cn2nc(N3CC(CC(=O)N4Cc5c(C)c(C)n6ncnc6c5C4)C3)ccc2n1` [Example 55], for which the 50% effective concentration (EC50) worked out at 18.1 nM.
`Cc1c2c(c3ncnn3c1C)CN(C(=O)CC1CN(c3cc(C(F)(F)F)ncc3Cl)C1)C2` [Example 204]: the concentration giving a half-maximal response (EC50) under setting [1] came out at 33 nM.
Take `CCOc1cc(N2CC(OC(=O)N3Cc4c(C)c(C)n5ncnc5c4C3)C2)ccn1` [Example 238]: under setting [1], the 50% effective concentration (EC50) came to 35.1 nM.
For the compound `Cc1c2c(c3nccn3c1C)CN(C(=O)CC1CN(c3ccnc(OC(F)F)c3)C1)C2` [Example 70], under setting [1], the EC50 came to 73.6 nM.
For the compound `Cc1cn2nc(N3CC(CC(=O)N4Cc5c(C)c(C)n6nc(C)nc6c5C4)C3)ccc2n1` [Example 127], the EC50 under setting [1] is 15.2 nM.
In the case of `Cc1c2c(c3ncnn3c1C)CN(C(=O)CC1CN(c3ccc4nc(C(F)(F)F)cn4n3)C1)C2` [Example 213], the EC50 under setting [1] was determined as 12.4 nM.
In the case of `Cc1c2c(c3nccn3c1C)CN(C(=O)OC1CN(c3ccnc(OC(F)F)c3)C1)C2` [Example 72], the 50% effective concentration (EC50) under setting [1] worked out at 87.5 nM.
The same measure, in the same setting: the value for `Cc1c2c(c3ncnn3c1C)CN(C(=O)CC1CN(c3ccnc(S(=O)(=O)N(C)C)c3)C1)C2` [Example 61] was 10.6 nM.
On the same count and under the same terms, the figure for `Cc1c2c(n3ncnc3c1Cl)CN(C(=O)CC1CN(c3ccnc(C(F)(F)F)c3)C1)C2` [Example 293, 1-(4-Chloro-5-methyl-7,8-dihydro-6H-[1,2,4]triazolo[5,1-f]pyrrolo[4,3-b]pyridin-7-yl)-2-{1-[2-(trifluoromethyl)pyridin-4-yl]azetidin-3-yl}ethan-1-one] is 99.7 nM; for `Cc1c2c(c3ncnn3c1C)CN(C(=O)CC1CN(c3ccc(S(=O)(=O)C(F)F)cc3)C1)C2` [Example 25] it is 9.5 nM; for `Cc1c2c(c3ncnn3c1C)CN(C(=O)OC1CN(c3cc(C(F)(F)F)ncc3Cl)C1)C2` [Example 180] it is 69.5 nM.
Still for that read-out and setting: the value for `Cc1c2c(c3ncnn3c1C)CN(C(=O)CC1CN(c3ccc(C(F)(F)F)cn3)C1)C2` [Example 217] was 99.7 nM.
On to `Cc1c2c(c3nnnn3c1C)CN(C(=O)CC1CN(c3ccnc(C(F)(F)F)c3)C1)C2` [Example 148], for which the EC50 under setting [1] worked out at 37.7 nM.
As for `COc1ccc(N2CC(CC(=O)N3Cc4c(C)c(C)n5ncnc5c4C3)C2)cn1` [Example 264], under setting [1], the EC50 stood at 47.8 nM.
On the same count and under the same terms, the value for `Cc1nc(Cl)c(C)c(N2CC(CC(=O)N3Cc4c(C)c(C)n5ncnc5c4C3)C2)n1` [Example 226] was 29.9 nM.
`Cc1c2c(c3ncnn3c1C)CN(C(=O)CC1CN(c3ccc4c(ccn4C)c3)C1)C2` [Example 309]: the EC50 turned out to be 28.1 nM.
For the compound `Cc1c2c(c3nccn3c1C)CN(C(=O)OC1CN(c3ccnc(C(F)(F)F)c3)C1)C2` [Example 71], under setting [1], the half-maximal effective concentration (EC50) stood at 71.9 nM.
On the same count and under the same terms, the value for `Cc1c2c(c3ncnn3c1C)CN(C(=O)CC1CN(c3cc(Cl)ncc3Cl)C1)C2` [Example 146] was 12.4 nM.
As to `Cc1c2c(c3nccn3c1C)CN(C(=O)CC1CC1c1ccc(F)nc1)C2` (stereo not drawn) [Example 104], the half-maximal effective concentration (EC50) amounted to 53.8 nM.
Consider `Cc1c2c(c3ncnn3c1C)CN(C(=O)CC1CN(c3ccnc(OCC(F)(F)F)c3)C1)C2` [Example 186], for which the EC50 under setting [1] was determined as 28.8 nM.
With `CCOc1cc(N2CC(CC(=O)N3Cc4c(C)c(C)n5ncnc5c4C3)C2)ccn1` [Example 235], the EC50 under setting [1] worked out at 35.3 nM.
Consider `Cc1c2c(c3ncnn3c1C)CN(C(=O)c1ccc(F)c(Cl)c1)C2` [Example 29], for which the EC50 under setting [1] stood at 37 nM.
On to `Cc1c2c(c3ncnn3c1C)CN(C(=O)C[C@@H]1C[C@H]1c1ccc(F)nc1)C2` [Example 103, 1-(5,6-Dimethyl-7,9-dihydro-8H-pyrrolo[3,4-c][1,2,4]triazolo[1,5-a]pyridin-8-yl)-2-((1S,2R)-2-(6-fluoropyridin-3-yl)cyclopropyl)ethan-1-one], for which the 50% effective concentration (EC50) under setting [1] stood at 24.4 nM.
On to `Cc1c2c(c3ncnn3c1C)CN(C(=O)CC1CN(c3ccnc(C4CCCCO4)c3)C1)C2` (stereo not drawn) [Example 100], for which the EC50 under setting [1] worked out at 18.4 nM.
The same measure, in the same setting: the value for `Cc1c2c(c3nc(N)nn3c1C)CN(C(=O)CC1CN(c3ccnc(OC(F)F)c3)C1)C2` [Example 181] was 25.9 nM.
